Data from ChEMBL document CHEMBL1155511, “Discovery of a new potent bisamide FMS kinase inhibitor” (Bioorg Med Chem Lett, 2010).

Legend:
[1] = target: Serine/threonine-protein kinase Chk1 (Homo sapiens) (UniProt O14757); assay: Inhibition of CHK1 at 1 uM
[2] = target: Ephrin type-A receptor 1 (Homo sapiens) (UniProt P21709); assay: Inhibition of EPHA1 at 1 uM
[3] = target: Serine/threonine-protein kinase PLK1 (Homo sapiens) (UniProt P53350); assay: Inhibition of PLK1 at 1 uM
[4] = target: Serine/threonine-protein kinase PAK 2 (Homo sapiens) (UniProt Q13177); assay: Inhibition of PAK2 at 1 uM
[5] = target: Tyrosine-protein kinase JAK3 (Homo sapiens) (UniProt P52333); assay: Inhibition of JAK3 at 1 uM
[6] = target: Serine/threonine-protein kinase pim-1 (Homo sapiens) (UniProt P11309); assay: Inhibition of PIM1 at 1 uM
[7] = target: [Pyruvate dehydrogenase (acetyl-transferring)] kinase isozyme 1, mitochondrial (Homo sapiens) (UniProt Q15118); assay: Inhibition of PDK1 at 1 uM
[8] = target: Mitogen-activated protein kinase 14 (Homo sapiens) (UniProt Q16539); assay: Inhibition of SAPK2A at 1 uM
Sequence of Mitogen-activated protein kinase 14 (Homo sapiens) (Q16539 whole entry): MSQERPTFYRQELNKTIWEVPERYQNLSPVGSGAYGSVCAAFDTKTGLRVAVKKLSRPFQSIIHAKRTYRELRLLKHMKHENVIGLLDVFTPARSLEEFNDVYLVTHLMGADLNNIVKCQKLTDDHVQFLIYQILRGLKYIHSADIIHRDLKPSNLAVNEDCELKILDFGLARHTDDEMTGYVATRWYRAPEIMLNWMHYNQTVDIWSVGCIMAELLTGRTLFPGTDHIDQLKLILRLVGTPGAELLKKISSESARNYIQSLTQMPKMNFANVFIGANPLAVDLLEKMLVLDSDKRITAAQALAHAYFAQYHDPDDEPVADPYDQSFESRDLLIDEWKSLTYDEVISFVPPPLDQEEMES

[9] = target: Mitogen-activated protein kinase kinase kinase 9 (Homo sapiens) (UniProt P80192); assay: Inhibition of MLK1 at 1 uM
[10] = target: Cyclin-dependent kinase 5/CDK5 activator 1 (Homo sapiens) (UniProt Q00535+Q15078); assay: Inhibition of CDK5/p25 at 1 uM; type: protein-complex assay
[11] = target: Inhibitor of nuclear factor kappa-B kinase subunit beta (Homo sapiens) (UniProt O14920); assay: Inhibition of IKK-beta at 1 uM
[12] = target: Epidermal growth factor receptor (Homo sapiens) (UniProt P00533); assay: Inhibition of EGFR at 1 uM
[13] = target: T1, Macrophage colony-stimulating factor 1 receptor (Homo sapiens, UniProt P07333); assay: Inhibition of FMS
T1 sequence (P07333 whole entry, looked up): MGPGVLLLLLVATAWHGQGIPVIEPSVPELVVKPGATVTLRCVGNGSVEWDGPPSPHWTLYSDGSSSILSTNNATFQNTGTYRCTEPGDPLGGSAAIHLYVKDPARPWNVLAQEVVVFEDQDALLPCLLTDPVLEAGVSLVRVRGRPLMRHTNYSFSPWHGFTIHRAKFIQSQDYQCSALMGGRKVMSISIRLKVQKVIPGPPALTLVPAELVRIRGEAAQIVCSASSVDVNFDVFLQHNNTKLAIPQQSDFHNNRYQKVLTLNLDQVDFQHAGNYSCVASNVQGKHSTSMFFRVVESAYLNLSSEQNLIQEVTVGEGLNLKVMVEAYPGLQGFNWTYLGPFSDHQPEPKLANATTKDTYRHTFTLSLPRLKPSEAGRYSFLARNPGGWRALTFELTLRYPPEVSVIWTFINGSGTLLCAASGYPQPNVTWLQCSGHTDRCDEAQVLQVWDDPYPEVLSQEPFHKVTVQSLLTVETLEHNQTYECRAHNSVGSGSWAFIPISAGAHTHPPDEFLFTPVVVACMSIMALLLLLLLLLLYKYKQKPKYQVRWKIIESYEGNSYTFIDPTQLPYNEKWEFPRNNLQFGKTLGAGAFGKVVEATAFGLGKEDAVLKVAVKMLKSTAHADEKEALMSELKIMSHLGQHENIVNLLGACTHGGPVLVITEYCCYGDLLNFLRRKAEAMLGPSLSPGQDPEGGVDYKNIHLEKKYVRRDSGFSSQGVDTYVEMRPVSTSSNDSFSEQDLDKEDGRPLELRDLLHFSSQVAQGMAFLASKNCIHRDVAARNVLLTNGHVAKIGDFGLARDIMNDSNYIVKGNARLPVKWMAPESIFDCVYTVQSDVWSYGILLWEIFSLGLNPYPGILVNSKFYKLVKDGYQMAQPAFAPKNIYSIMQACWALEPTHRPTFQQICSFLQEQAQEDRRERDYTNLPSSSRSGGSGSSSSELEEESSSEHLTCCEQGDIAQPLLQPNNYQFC

[14] = target: Proto-oncogene tyrosine-protein kinase ROS (Homo sapiens) (UniProt P08922); assay: Inhibition of ROS1 at 1 uM
[15] = target: T1, Macrophage colony-stimulating factor 1 receptor; assay: Inhibition of FMS at 1 uM
[16] = target: Glycogen synthase kinase-3 beta (Homo sapiens) (UniProt P49841); assay: Inhibition of GSK3-beta at 1 uM
[17] = target: T2, Vascular endothelial growth factor receptor 2 (Homo sapiens, UniProt P35968); assay: Inhibition of KDR at 1 uM
T2 sequence (P35968 whole entry): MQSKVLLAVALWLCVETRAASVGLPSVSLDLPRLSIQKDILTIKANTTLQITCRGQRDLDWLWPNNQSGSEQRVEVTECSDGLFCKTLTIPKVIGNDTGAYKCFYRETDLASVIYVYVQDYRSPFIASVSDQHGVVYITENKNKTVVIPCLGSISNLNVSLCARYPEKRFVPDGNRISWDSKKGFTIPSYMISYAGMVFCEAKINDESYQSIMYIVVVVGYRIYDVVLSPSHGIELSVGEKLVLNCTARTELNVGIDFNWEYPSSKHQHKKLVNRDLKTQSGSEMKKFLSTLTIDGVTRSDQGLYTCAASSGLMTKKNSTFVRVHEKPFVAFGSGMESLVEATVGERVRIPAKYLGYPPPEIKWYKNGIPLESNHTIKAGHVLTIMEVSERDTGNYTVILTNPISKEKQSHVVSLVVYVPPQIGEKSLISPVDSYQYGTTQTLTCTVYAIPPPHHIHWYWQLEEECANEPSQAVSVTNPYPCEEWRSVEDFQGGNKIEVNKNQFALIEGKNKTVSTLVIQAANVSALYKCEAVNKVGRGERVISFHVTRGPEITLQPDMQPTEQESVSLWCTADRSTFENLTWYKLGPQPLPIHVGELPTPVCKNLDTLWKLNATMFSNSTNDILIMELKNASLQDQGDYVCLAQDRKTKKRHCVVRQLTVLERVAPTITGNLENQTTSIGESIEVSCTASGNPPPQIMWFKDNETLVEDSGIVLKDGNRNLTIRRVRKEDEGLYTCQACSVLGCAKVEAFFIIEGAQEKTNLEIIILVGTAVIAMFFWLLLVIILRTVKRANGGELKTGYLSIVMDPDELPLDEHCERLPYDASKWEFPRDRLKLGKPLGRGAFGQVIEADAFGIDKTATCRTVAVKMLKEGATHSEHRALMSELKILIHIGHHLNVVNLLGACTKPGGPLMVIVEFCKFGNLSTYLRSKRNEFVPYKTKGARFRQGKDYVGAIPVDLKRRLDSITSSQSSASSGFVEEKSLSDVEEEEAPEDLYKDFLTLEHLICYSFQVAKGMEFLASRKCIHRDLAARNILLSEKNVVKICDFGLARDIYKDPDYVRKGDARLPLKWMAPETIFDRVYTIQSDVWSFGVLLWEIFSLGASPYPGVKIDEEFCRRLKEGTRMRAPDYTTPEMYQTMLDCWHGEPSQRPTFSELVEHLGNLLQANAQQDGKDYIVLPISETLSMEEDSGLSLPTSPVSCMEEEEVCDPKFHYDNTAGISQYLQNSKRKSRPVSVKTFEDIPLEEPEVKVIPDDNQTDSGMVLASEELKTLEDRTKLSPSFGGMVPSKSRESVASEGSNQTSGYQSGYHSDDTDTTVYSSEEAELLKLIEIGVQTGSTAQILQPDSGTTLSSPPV

[18] = target: Tyrosine-protein kinase Lck (Homo sapiens) (UniProt P06239); assay: Inhibition of LCK at 1 uM
Sequence of Tyrosine-protein kinase Lck (Homo sapiens) (P06239 2-509 limits assumed): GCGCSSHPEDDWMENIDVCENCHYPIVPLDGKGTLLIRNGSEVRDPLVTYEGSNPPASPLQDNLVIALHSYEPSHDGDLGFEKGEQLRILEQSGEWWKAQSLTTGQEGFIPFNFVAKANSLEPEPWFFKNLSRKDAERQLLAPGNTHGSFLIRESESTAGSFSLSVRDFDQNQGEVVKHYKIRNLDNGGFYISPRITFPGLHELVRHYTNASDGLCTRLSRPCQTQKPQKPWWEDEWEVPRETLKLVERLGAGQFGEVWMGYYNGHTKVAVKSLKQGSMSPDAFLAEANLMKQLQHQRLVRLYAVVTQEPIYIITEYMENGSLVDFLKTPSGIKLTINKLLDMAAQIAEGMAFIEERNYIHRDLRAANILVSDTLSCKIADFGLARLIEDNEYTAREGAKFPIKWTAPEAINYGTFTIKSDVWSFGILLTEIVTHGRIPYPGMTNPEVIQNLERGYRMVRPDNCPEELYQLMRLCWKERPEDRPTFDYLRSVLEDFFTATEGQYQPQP

[19] = target: Rho-associated protein kinase 1 (Homo sapiens) (UniProt Q13464); assay: Inhibition of ROCK1 at 1 uM
Sequence of Rho-associated protein kinase 1 (Homo sapiens) (Q13464 2-1354 limits assumed): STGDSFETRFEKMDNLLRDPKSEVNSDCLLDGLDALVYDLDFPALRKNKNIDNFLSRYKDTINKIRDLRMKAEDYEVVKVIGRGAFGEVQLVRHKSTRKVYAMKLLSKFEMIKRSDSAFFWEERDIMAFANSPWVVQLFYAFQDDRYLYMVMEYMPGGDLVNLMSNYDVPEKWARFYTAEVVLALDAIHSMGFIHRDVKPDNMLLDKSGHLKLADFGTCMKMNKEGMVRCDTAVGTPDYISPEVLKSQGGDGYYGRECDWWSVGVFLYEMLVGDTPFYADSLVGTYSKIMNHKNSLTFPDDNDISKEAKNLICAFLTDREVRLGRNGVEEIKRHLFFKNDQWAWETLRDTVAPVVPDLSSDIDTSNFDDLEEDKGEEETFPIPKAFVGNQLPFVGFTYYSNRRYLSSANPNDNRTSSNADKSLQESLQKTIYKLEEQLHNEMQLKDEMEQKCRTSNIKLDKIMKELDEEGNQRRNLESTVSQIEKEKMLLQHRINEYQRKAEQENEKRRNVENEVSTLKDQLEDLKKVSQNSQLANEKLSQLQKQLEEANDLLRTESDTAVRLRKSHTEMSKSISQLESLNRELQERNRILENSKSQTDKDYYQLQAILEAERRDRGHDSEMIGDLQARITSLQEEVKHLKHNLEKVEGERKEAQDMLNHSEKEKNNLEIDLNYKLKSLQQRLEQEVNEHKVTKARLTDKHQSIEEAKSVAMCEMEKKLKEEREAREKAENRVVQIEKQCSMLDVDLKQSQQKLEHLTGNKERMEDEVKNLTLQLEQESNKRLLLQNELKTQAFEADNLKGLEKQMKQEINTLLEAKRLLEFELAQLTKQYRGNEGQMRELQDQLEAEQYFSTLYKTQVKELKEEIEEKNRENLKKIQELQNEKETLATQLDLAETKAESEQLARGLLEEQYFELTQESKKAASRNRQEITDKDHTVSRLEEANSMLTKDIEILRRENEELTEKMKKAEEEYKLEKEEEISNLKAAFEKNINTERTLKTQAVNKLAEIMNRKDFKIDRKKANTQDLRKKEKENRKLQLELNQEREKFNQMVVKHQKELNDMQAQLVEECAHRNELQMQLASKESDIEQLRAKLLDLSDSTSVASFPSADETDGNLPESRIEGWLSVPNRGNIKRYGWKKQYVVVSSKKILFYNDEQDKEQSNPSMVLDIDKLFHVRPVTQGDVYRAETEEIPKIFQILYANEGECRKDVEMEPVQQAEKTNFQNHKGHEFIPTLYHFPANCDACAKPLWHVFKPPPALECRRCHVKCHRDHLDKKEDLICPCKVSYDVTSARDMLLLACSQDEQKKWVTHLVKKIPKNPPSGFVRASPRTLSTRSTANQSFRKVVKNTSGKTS

[20] = target: Dual specificity mitogen-activated protein kinase kinase 1 (Homo sapiens) (UniProt Q02750); assay: Inhibition of MEK1 at 1 uM
[21] = target: Tyrosine-protein kinase Tec (Homo sapiens) (UniProt P42680); assay: Inhibition of TEC at 1 uM
[22] = target: Calcium/calmodulin-dependent protein kinase type 1 (Homo sapiens) (UniProt Q14012); assay: Inhibition of CamK1 at 1 uM
Sequence of Calcium/calmodulin-dependent protein kinase type 1 (Homo sapiens) (Q14012 whole entry, looked up): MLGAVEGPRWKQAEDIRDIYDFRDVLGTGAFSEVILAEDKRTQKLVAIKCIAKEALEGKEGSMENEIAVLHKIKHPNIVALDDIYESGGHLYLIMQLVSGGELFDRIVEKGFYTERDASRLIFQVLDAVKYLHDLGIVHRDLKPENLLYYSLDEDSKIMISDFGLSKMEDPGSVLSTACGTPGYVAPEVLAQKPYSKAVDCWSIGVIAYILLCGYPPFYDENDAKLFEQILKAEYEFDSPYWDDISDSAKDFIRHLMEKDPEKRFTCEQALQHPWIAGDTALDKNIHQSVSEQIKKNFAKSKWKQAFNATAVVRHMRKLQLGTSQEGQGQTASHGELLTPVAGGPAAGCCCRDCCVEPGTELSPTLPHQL

[23] = target: Ribosomal protein S6 kinase alpha-1 (Homo sapiens) (UniProt Q15418); assay: Inhibition of RSK1 at 1 uM
[24] = target: T2, Vascular endothelial growth factor receptor 2; assay: Inhibition of KDR
[25] = target: Mitogen-activated protein kinase 8 (Homo sapiens) (UniProt P45983); assay: Inhibition of JNK1alpha1 at 1 uM
[26] = target: Mast/stem cell growth factor receptor Kit (Homo sapiens) (UniProt P10721); assay: Inhibition of cKIT1 at 1 uM
[27] = Inhibition of PKA at 1 uM
[28] = target: Insulin-like growth factor 1 receptor (Homo sapiens) (UniProt P08069); assay: Inhibition of IGF1R at 1 uM
[29] = target: Fibroblast growth factor receptor 1 (Homo sapiens) (UniProt P11362); assay: Inhibition of FGFR1 at 1 uM
[30] = target: Serine/threonine-protein kinase mTOR (Homo sapiens) (UniProt P42345); assay: Inhibition of mTOR at 1 uM
[31] = target: Insulin receptor (Homo sapiens) (UniProt P06213); assay: Inhibition of IR at 1 uM
[32] = target: ALK tyrosine kinase receptor (Homo sapiens) (UniProt Q9UM73); assay: Inhibition of ALK at 1 uM
[33] = target: Tyrosine-protein kinase SYK (Homo sapiens) (UniProt P43405); assay: Inhibition of SYK at 1 uM
[34] = target: Tyrosine-protein kinase Fyn (Homo sapiens) (UniProt P06241); assay: Inhibition of FYN at 1 uM
[35] = target: Receptor-type tyrosine-protein kinase FLT3 (Homo sapiens) (UniProt P36888); assay: Inhibition of FLT3 at 1 uM
[36] = target: Serine/threonine-protein kinase MARK1 (Homo sapiens) (UniProt Q9P0L2); assay: Inhibition of MARK1 at 1 uM
[37] = target: Proto-oncogene tyrosine-protein kinase Src (Homo sapiens) (UniProt P12931); assay: Inhibition of c-SRC at 1 uM
[38] = target: Homeodomain-interacting protein kinase 2 (Homo sapiens) (UniProt Q9H2X6); assay: Inhibition of HIPK2 at 1 uM
[39] = target: Tyrosine-protein kinase ABL1 (Homo sapiens) (UniProt P00519); assay: Inhibition of ABL1 at 1 uM
[40] = target: Aurora kinase A (Homo sapiens) (UniProt O14965); assay: Inhibition of Aurora A at 1 uM
[41] = Inhibition of PKBalpha; conditions: concentration not given here
[42] = target: Ribosomal protein S6 kinase beta-1 (Homo sapiens) (UniProt P23443); assay: Inhibition of p70S6K at 1 uM
[43] = target: Protein kinase C alpha type (Homo sapiens) (UniProt P17252); assay: Inhibition of PKCalpha at 1 uM
[44] = target: Protein-tyrosine kinase 2-beta (Homo sapiens) (UniProt Q14289); assay: Inhibition of PYK2 at 1 uM
[45] = target: Proto-oncogene tyrosine-protein kinase receptor Ret (Homo sapiens) (UniProt P07949); assay: Inhibition of RET at 1 uM
[46] = target: Tyrosine-protein kinase BTK (Homo sapiens) (UniProt Q06187); assay: Inhibition of BTK at 1 uM

Question: Which inhibition [1] does the source give for `O=C(Nc1cccc(-n2ccc3c(NC(=O)c4ccccc4)nccc32)c1)c1ccc(N2CCOCC2)c(C(F)(F)F)c1` here?
Answer: -8%

Question: And the inhibition [2]?
Answer: 9%

Question: And the inhibition [3]?
Answer: 4%

Question: What about the inhibition [4] of the same compound?
Answer: 2%

Question: What about the inhibition [5] of the same compound?
Answer: 17%

Question: And the inhibition [6]?
Answer: 10%

Question: What about the inhibition [7] of the same compound?
Answer: -1%

Question: And the inhibition [8]?
Answer: 25%

Question: And the inhibition [9]?
Answer: -1%

Question: What about the inhibition [10] of the same compound?
Answer: 8%

Question: And the inhibition [11]?
Answer: 23%

Question: What about the inhibition [12] of the same compound?
Answer: 1%

Question: What about the IC50 [13] of the same compound?
Answer: 96 nM

Question: What about the inhibition [14] of the same compound?
Answer: 19%

Question: What about the inhibition [15] of the same compound?
Answer: 90%

Question: And the inhibition [16]?
Answer: 4%

Question: And the inhibition [17]?
Answer: 71%

Question: What about the inhibition [18] of the same compound?
Answer: 33%

Question: What about the inhibition [19] of the same compound?
Answer: 3%

Question: And the inhibition [20]?
Answer: 12%

Question: What about the inhibition [21] of the same compound?
Answer: 14%

Question: What about the inhibition [22] of the same compound?
Answer: -1%

Question: What about the inhibition [23] of the same compound?
Answer: 8%

Question: What about the IC50 [24] of the same compound?
Answer: 1060 nM

Question: What about the inhibition [25] of the same compound?
Answer: -1%

Question: And the inhibition [26]?
Answer: -2%

Question: And the inhibition [27]?
Answer: 16%

Question: What about the inhibition [28] of the same compound?
Answer: 10%

Question: What about the inhibition [29] of the same compound?
Answer: 6%

Question: And the inhibition [30]?
Answer: -10%

Question: What about the inhibition [31] of the same compound?
Answer: 2%

Question: What about the inhibition [32] of the same compound?
Answer: 11%

Question: What about the inhibition [33] of the same compound?
Answer: 6%

Question: And the inhibition [34]?
Answer: 44%

Question: And the inhibition [35]?
Answer: 16%

Question: What about the inhibition [36] of the same compound?
Answer: -9%

Question: And the inhibition [37]?
Answer: 10%

Question: And the inhibition [38]?
Answer: 9%

Question: And the inhibition [39]?
Answer: 41%

Question: And the inhibition [40]?
Answer: 21%

Question: What about the inhibition [41] of the same compound?
Answer: 18%

Question: What about the inhibition [42] of the same compound?
Answer: 7%

Question: What about the inhibition [43] of the same compound?
Answer: -5%

Question: And the inhibition [44]?
Answer: 23%

Question: What about the inhibition [45] of the same compound?
Answer: 57%

Question: What about the inhibition [46] of the same compound?
Answer: 7%
